The source made the active and inactive calls. The calls are words filed in the database; no cut-off is given here.
Legend:
[1] = test system: HeLa; assay: Cytotoxicity against human HeLa cells assessed as reduction in cell viability; type: functional, cell-based
[2] = test system: Staphylococcus aureus; assay: Antibacterial activity against Staphylococcus aureus; type: functional, organism-based
[3] = test system: Staphylococcus epidermidis; assay: Antibacterial activity against Staphylococcus epidermidis; type: functional, organism-based

Row | Compound | Activity [1] | Activity [2] | Activity [3]
1 | CCCC/C=C/Cc1cc(=O)c2ccccc2[nH]1 | inactive | Active | Active
2 | CCCCC/C=C/c1cc(=O)c2ccccc2[nH]1 | inactive | Active | Active
3 | CCCCCCCc1cc(=O)c2ccccc2[nH]1 | inactive | Active | Active
4 | CCCCCCCCCc1cc(=O)c2ccccc2[nH]1 | inactive | Active | Active
5 | CCCCCCC/C=C/c1cc(=O)c2ccccc2[nH]1 | inactive | Active | Active
6 | CCCCCCCc1cc(O)c2ccccc2[n+]1[O-] | inactive | Active | Active
7 | CS/C=C/c1cc(=O)c2ccccc2[nH]1 | inactive | Active | Active
8 | CCCCCCCCc1cc(=O)c2ccccc2[nH]1 | inactive | Active | Active
9 | CCCCCCCCC/C=C/c1cc(=O)c2ccccc2[nH]1 | inactive | Active | Active
10 | O=c1cc(Cc2ccccc2)[nH]c2ccccc12 | inactive | Active | Active
11 | CCCCCC/C=C\CCCc1cc(=O)c2ccccc2[nH]1 | inactive | Active | Active
12 | CC(C)CCCCc1cc(=O)c2ccccc2[nH]1 | inactive | Active | Active
13 | CC/C(C)=C/Cc1cc(=O)c2ccccc2[nH]1 | inactive | Active | Active
14 | CCCCCC/C=C\CCCc1cc(=O)c2ccccc2n1O | inactive | Active | Active
15 | CCCCCC/C=C/Cc1cc(=O)c2ccccc2[nH]1 | inactive | Active | Active
16 | CCCC/C=C/CCCc1cc(=O)c2ccccc2[nH]1 | inactive | Active | Active

Source: ChEMBL document CHEMBL4665687, “Isolation of 2-Alkyl-4-quinolones with Unusual Side Chains from a Chinese Pseudomonas aeruginosa Isolate” (J Nat Prod, 2020)
